In patent US8236792B2, “Substituted pyrrolidine amides as modulators of the histamine H3 receptor” (Janssen Pharmaceutica NV, priority 2008, dated 2012):

target: human H3 receptor (Homo sapiens, UniProt Q9Y5N1); assay: H3 Receptor Binding (Human) Method 2, [125I]-iodoproxyfan competitive radioligand binding; parameters: expressed in transfected cells; conditions: not given
Sequence (Q9Y5N1 whole entry): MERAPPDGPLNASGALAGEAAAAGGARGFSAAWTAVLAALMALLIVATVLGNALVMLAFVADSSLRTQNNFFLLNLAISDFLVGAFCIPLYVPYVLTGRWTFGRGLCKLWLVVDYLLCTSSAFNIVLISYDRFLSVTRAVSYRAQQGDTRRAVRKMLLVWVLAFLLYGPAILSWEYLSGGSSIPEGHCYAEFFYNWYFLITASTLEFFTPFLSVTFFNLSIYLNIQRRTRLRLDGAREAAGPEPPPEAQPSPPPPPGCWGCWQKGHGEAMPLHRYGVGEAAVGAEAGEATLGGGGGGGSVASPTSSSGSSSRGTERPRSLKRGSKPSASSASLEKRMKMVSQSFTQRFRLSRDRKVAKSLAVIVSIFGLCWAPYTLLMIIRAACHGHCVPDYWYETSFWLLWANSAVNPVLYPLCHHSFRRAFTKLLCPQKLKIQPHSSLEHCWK

Point of comparison: `CC(=O)N1C[C@@H](Oc2cccc(F)c2)C[C@H]1C(=O)N1CCCN(C2CCC2)CC1` [Example 115, (2S,4S)-1-[2-(4-Cyclobutyl-[1,4]diazepane-1-carbonyl)-4-(3-fluoro-phenoxy)-pyrrolidin-1-yl]-ethanone], Ki 21 nM. Against it:
- O=C([C@H]1C[C@H](Oc2ccccn2)CN1)N1CCCN(C2CCC2)CC1 [Example 98, (2R,4S)-2-(4-Cyclobutyl-[1,4]diazepane-1-carbonyl)-4-(pyridin-2-yloxy)-pyrrolidine] — 4.2-fold lower, 5 nM
- CC(=O)N1C[C@H](Oc2cccc(F)c2)C[C@H]1C(=O)N1CCCN(C2CCC2)CC1 [Example 129, (2S,4R)-1-[2-(4-Cyclobutyl-[1,4]diazepane-1-carbonyl)-4-(3-fluoro-phenoxy)-pyrrolidin-1-yl]-ethanone] — 18-fold higher, 379 nM
- CC(=O)N1C[C@H](Oc2cccc(F)c2)C[C@@H]1C(=O)N1CCCN(C2CCC2)CC1 [Example 130] — 27-fold higher, 569 nM

same assay, conditions: Method 2; SK-N-MC cell membranes; [125I]-iodoproxyfan 1 nM; apparent Ki; free base or hydrochloride salt; average of results; read-out: Human H3 Ki

Point of comparison: `CC(C)N1C[C@@H](Oc2ccc(F)cc2)C[C@@H]1C(=O)N1CCCN(C2CCC2)CC1` [Example 112, (2R,4S)-1-Isopropyl-1-cyclobutyl-2-(4-cyclobutyl-[1,4]diazepane-1-carbonyl)-4-(4-fluoro-phenoxy)-pyrrolidine], Ki 12 nM. Against it:
- CCOC(=O)N1C[C@@H](Oc2cccc(F)c2)C[C@@H]1C(=O)N1CCCN(C2CCC2)CC1 [Example 127, (2R,4S)-2-(4-Cyclobutyl-[1,4]diazepane-1-carbonyl)-4-(3-fluoro-phenoxy) pyrrolidine-1-carboxylic acid ethyl ester] — within 1.5-fold, 16 nM
- O=C([C@@H]1C[C@H](Oc2ccc(F)cc2)CN1C1CC1)N1CCCN(C2CCC2)CC1 [Example 141, (2S,4S)-2-(4-Cyclobutyl-[1,4]diazepan-1-yl)-[1-cyclopropyl-4-(4-fluoro-phenoxy)-pyrrolidin-2-yl]-methanone] — 4.6-fold higher, 55 nM

same assay, conditions: read-out: Human H3 Ki

Point of comparison: `O=C([C@H]1C[C@H](Oc2ccc(F)cc2)CN1C1CCC1)N1CCCN(C2CCC2)CC1` [Example 111, (2R,4S)-1-Cyclobutyl-2-(4-cyclobutyl-[1,4]diazepane-1-carbonyl)-4-(4-fluoro-phenoxy)-pyrrolidine], Ki 17 nM. Against it:
- CC(C)(C)OC(=O)N1C[C@H](Oc2cccc(F)c2)C[C@@H]1C(=O)N1CCCN(C2CCC2)CC1 [Example 55, (2R,4R)-2-(4-Cyclobutyl-[1,4]diazepane-1-carbonyl)-4-(3-fluoro-phenoxy)-pyrrolidine-1-carboxylic acid tert-butyl ester] — 3.4-fold higher, 57 nM
- CC(C)(C)OC(=O)N1C[C@H](Oc2ccc(F)cc2)C[C@@H]1C(=O)N1CCCN(C2CCC2)CC1 [Example 56, (2R,4R)-2-(4-Cyclobutyl-[1,4]diazepane-1-carbonyl)-4-(4-fluoro-phenoxy)-pyrrolidine-1-carboxylic acid tert-butyl ester] — 2.9-fold higher, 49 nM
- CC(C)(C)OC(=O)N1C[C@H](Oc2ccc(Cl)cc2)C[C@@H]1C(=O)N1CCCN(C2CCC2)CC1 [Example 57, (2R,4R)-4-(4-Chloro-phenoxy)-2-(4-cyclobutyl-[1,4]diazepane-1-carbonyl)-pyrrolidine-1-carboxylic acid tert-butyl ester] — 5.5-fold higher, 93 nM
- CC(C)(C)OC(=O)N1C[C@H](Oc2ccccc2)C[C@@H]1C(=O)N1CCCN(C2CCC2)CC1 [Example 58, (2R,4R)-2-(4-Cyclobutyl-[1,4]diazepane-1-carbonyl)-4-phenoxy-pyrrolidine-1-carboxylic acid tert-butyl ester] — 12-fold higher, 211 nM
- CC(C)(C)OC(=O)N1C[C@H](Oc2ccc(C#N)cc2)C[C@@H]1C(=O)N1CCCN(C2CCC2)CC1 [Example 60, (2R,4R)-4-(4-Cyano-phenoxy)-2-(4-cyclobutyl-[1,4]diazepane-1-carbonyl)-pyrrolidine-1-carboxylic acid tert-butyl ester] — 9.4-fold higher, 160 nM
- CC(C)(C)OC(=O)N1C[C@@H](Sc2ccc(F)cc2)C[C@@H]1C(=O)N1CCCN(C2CCC2)CC1 [Example 61, (2R,4S)-2-(4-Cyclobutyl-[1,4]diazepane-1-carbonyl)-4-(4-fluoro-phenylsulfanyl)-pyrrolidine-1-carboxylic acid tert-butyl ester] — the same, 17 nM
- Cc1cccc(O[C@@H]2CN[C@@H](C(=O)N3CCCN(C4CCC4)CC3)C2)c1 [Example 74, (2R,4S)-4-(4-m-Tolyloxy)-2-(4-cyclobutyl-[1,4]diazepane-1-carbonyl)-pyrrolidine] — 3.4-fold lower, 5 nM
- O=C([C@H]1C[C@H](Oc2ccc(C(F)(F)F)cc2)CN1)N1CCCN(C2CCC2)CC1 [Example 75, (2R,4S)-4-(4-Trifluoromethyl-phenoxy)-2-(4-cyclobutyl-[1,4]diazepane-1-carbonyl)-pyrrolidine] — 4.2-fold lower, 4 nM
- Cc1ccc(O[C@@H]2CN[C@@H](C(=O)N3CCCN(C4CCC4)CC3)C2)cc1 [Example 76, (2R,4S)-4-(4-p-Tolyloxy)-2-(4-cyclobutyl-[1,4]diazepane-1-carbonyl)-pyrrolidine] — 3.4-fold lower, 5 nM
- Cc1ccccc1O[C@@H]1CN[C@@H](C(=O)N2CCCN(C3CCC3)CC2)C1 [Example 77, (2R,4S)-4-(4-o-Tolyloxy)-2-(4-cyclobutyl-[1,4]diazepane-1-carbonyl)-pyrrolidine] — 5.7-fold lower, 3 nM
- O=C([C@H]1C[C@H](Oc2ccc(F)cc2)CN1)N1CCCN(C2CC2)CC1 [Example 78, (2R,4S)-2-(4-Cyclopropyl-[1,4]diazepane-1-carbonyl)-4-(4-fluoro-phenoxy)-pyrrolidine] — within 1.5-fold, 20 nM
- N#Cc1ccc(O[C@@H]2CN[C@@H](C(=O)N3CCCN(C4CC4)CC3)C2)cc1 [Example 79, (2R,4S)-4-(4-Cyano-phenoxy)-2-(4-cyclopropyl-[1,4]diazepane-1-carbonyl)-pyrrolidine] — within 1.5-fold, 12 nM
- O=C([C@H]1C[C@H](Oc2ccc(F)cc2)CN1)N1CCN(C2CCCC2)CC1 [Example 80, (2R,4S)-2-(4-Cyclopentyl-piperazine-1-carbonyl)-4-(4-fluoro-phenoxy)-pyrrolidine] — 2.4-fold higher, 40 nM
- N#Cc1ccc(O[C@@H]2CN[C@@H](C(=O)N3CCN(C4CCCC4)CC3)C2)cc1 [Example 81, (2R,4S)-4-(4-Cyano-phenoxy)-2-(4-cyclopentyl-piperazine-1-carbonyl)-pyrrolidine] — within 1.5-fold, 23 nM
- CN(C)[C@H]1CCN(C(=O)[C@H]2C[C@H](Oc3cccc(F)c3)CN2)C1 [Example 85] — 76-fold higher, 1300 nM
- Cc1cnc(F)cc1O[C@@H]1CN[C@@H](C(=O)N2CCCN(C3CCC3)CC2)C1 [Example 99, (2R,4S)-2-(4-Cyclobutyl-[1,4]diazepane-1-carbonyl)-4-(2-fluoro-5-methyl-pyridin-4-yloxy)-pyrrolidine] — 8.5-fold lower, 2 nM
- Cc1cnc(O[C@@H]2CN[C@@H](C(=O)N3CCCN(C4CCC4)CC3)C2)cc1I [Example 100, (2R,4S)-2-(4-Cyclobutyl-[1,4]diazepane-1-carbonyl)-4-(4-iodo-5-methyl-pyridin-2-yloxy)-pyrrolidine] — 8.5-fold lower, 2 nM
- O=C([C@H]1C[C@H](Oc2cccnc2)CN1)N1CCCN(C2CCC2)CC1 [Example 101, (2R,4S)-2-(4-Cyclobutyl-[1,4]diazepane-1-carbonyl)-4-(Pyridin-3-yloxy)-pyrrolidine] — 5.7-fold lower, 3 nM
- CC(C)N1C[C@@H](Oc2ccc(F)cc2)C[C@H]1C(=O)N1CCCN(C2CCC2)CC1 [Example 108, (2S,4S)-(4-Cyclobutyl-[1,4]diazepan-1-yl)-[4-(4-fluoro-phenoxy)-1-isopropyl-pyrrolidin-2-yl]-methanone] — 35-fold higher, 594 nM
- CCN1C[C@@H](Oc2ccc(F)cc2)C[C@H]1C(=O)N1CCCN(C2CCC2)CC1 [Example 109, (2S,4S)-(4-Cyclobutyl-[1,4]diazepan-1-yl)-[1-ethyl-4-(4-fluoro-phenoxy)-pyrrolidin-2-yl]-methanone] — 3.2-fold higher, 55 nM
- O=C([C@H]1C[C@H](Oc2ccc(F)cc2)CN1CC1CC1)N1CCCN(C2CCC2)CC1 [Example 113, (2R,4S)-1-Cyclopropylmethyl-2-(4-cyclobutyl-[1,4]diazepane-1-carbonyl)-4-(4-fluoro-phenoxy)-pyrrolidine] — 2.4-fold lower, 7 nM
- CC(C)C(=O)N1C[C@@H](Oc2cccc(F)c2)C[C@@H]1C(=O)N1CCCN(C2CCC2)CC1 [Example 123, (2R,4S)-1-[2-(4-Cyclobutyl-[1,4]diazepane-1-carbonyl)-4-(3-fluoro-phenoxy)-pyrrolidin-1-yl]-2-methyl-propan-1-one] — within 1.5-fold, 18 nM
- CCC(=O)N1C[C@@H](Oc2cccc(F)c2)C[C@@H]1C(=O)N1CCCN(C2CCC2)CC1 [Example 125, (2R,4S)-1-[2-(4-Cyclobutyl-[1,4]diazepane-1-carbonyl)-4-(3-fluoro-phenoxy)-pyrrolidin-1-yl]-propan-1-one] — 5.7-fold lower, 3 nM
- CC(=O)N1C[C@@H](Oc2ccccn2)C[C@@H]1C(=O)N1CCCN(C2CCC2)CC1 [Example 132, (2R,4S)-1-[2-(4-Cyclobutyl-[1,4]diazepane-1-carbonyl)-4-(Pyridin-2-yloxy)-pyrrolidin-1-yl]-ethanone] — 5.7-fold lower, 3 nM
- CC(=O)N1C[C@@H](Oc2cccnc2)C[C@@H]1C(=O)N1CCCN(C2CCC2)CC1 [Example 133, (2R,4S)-1-[2-(4-Cyclobutyl-[1,4]diazepane-1-carbonyl)-4-(Pyridin-3-yloxy)-pyrrolidin-1-yl]-ethanone] — 5.7-fold lower, 3 nM
- CC(=O)N1C[C@@H](Oc2cccs2)C[C@@H]1C(=O)N1CCCN(C2CCC2)CC1 [Example 135, (2R,4S)-1-[2-(4-Cyclobutyl-[1,4]diazepane-1-carbonyl)-4-(thiophen-2-yloxy)-pyrrolidin-1-yl]-ethanone] — 5.7-fold lower, 3 nM
- CC(=O)N1C[C@@H](Oc2ccc3c(c2)OCCO3)C[C@@H]1C(=O)N1CCCN(C2CCC2)CC1 [Example 136, (2R,4S)-1-[2-(4-Cyclobutyl-[1,4]diazepane-1-carbonyl)-4-(2,3-dihydro-benzo[1,4]dioxin-6-yloxy)-pyrrolidin-1-yl]-ethanone] — 8.5-fold lower, 2 nM
- CS(=O)(=O)N1C[C@@H](Oc2ccc(F)cc2)C[C@@H]1C(=O)N1CCCN(C2CCC2)CC1 [Example 140, (2R,4S)-(4-Cyclobutyl-[1,4]diazepan-1-yl)-[4-(4-fluoro-phenoxy)-1-methanesulfonyl-pyrrolidin-2-yl]-methanone] — 17-fold lower, 1 nM
